According to ChEMBL document CHEMBL1201862, “PubChem BioAssay data set” (2004):
Blank lines part the entries; values can stand above or below the molecule they belong to. Activity calls are given as the source filed them.

Key:
CAAX prenyl protease 2 = target: T1, CAAX prenyl protease 2 (Saccharomyces cerevisiae S288c, UniProt Q03530); assay type: biochemical
T1 sequence (Q03530 whole entry): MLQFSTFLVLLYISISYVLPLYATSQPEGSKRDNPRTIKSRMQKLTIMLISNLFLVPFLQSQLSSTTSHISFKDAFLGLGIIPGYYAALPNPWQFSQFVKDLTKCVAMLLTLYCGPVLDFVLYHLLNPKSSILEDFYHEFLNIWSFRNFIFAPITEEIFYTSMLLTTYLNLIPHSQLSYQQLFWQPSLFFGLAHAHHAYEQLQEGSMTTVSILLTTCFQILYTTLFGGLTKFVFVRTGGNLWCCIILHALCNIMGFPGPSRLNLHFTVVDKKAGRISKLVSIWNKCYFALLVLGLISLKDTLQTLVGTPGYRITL

[1] = toxicity toward cultured mammalian cells – cell-based, plate reader, cherry-pick samples, cytotoxicity control, dose response (AID 504397); assay type: functional
[2] = target: T2, Tyrosine-protein phosphatase non-receptor type 22 (Homo sapiens, UniProt Q9Y2R2); assay type: functional
T2 sequence (Q9Y2R2 whole entry): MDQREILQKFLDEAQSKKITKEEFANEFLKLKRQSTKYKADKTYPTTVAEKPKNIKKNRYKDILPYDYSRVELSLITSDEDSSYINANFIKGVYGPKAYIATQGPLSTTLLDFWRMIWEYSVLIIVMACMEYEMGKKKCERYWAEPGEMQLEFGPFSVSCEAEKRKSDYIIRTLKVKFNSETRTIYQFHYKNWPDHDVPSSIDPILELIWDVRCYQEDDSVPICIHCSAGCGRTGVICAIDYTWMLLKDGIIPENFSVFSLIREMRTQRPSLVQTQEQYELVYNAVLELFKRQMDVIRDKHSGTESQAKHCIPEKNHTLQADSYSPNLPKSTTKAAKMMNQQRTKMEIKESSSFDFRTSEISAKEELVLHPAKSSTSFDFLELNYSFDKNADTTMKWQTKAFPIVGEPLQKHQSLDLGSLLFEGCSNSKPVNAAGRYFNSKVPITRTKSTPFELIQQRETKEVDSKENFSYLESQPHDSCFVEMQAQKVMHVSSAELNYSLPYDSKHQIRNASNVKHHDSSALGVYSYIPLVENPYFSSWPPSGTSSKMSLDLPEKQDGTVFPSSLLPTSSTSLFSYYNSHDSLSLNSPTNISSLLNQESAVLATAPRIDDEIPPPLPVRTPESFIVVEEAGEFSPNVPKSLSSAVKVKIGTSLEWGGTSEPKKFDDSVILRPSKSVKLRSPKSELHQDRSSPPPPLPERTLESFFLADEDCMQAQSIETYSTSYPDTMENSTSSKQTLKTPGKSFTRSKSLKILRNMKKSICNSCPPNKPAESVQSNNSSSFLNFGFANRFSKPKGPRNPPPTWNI

[3] = target: T2, Tyrosine-protein phosphatase non-receptor type 22; assay type: functional; remark: listed apart in the source
[4] = target: T3, Tyrosine-protein phosphatase non-receptor type 7 (Homo sapiens, UniProt P35236); assay type: functional
T3 sequence (P35236 whole entry): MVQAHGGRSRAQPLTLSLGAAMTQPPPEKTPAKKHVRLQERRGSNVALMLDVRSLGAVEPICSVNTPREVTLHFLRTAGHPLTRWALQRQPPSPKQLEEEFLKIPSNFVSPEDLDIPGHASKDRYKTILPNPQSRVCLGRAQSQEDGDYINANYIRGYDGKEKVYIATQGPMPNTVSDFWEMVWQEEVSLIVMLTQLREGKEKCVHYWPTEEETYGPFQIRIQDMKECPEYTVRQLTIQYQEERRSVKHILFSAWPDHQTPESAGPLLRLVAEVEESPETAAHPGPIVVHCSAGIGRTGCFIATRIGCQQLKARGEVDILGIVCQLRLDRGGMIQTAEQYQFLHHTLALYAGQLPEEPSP

[5] = target: T4, Corticotropin-releasing factor receptor 2/Corticotropin-releasing factor-binding protein (Homo sapiens, UniProt P24387+Q13324); experiment: activators of CRF receptor 2 with binding protein – uHTS hits, confirmation (AID 602473); assay type: functional; conditions: read-out: EC50_Mean
T4 sequence (Q13324 whole entry): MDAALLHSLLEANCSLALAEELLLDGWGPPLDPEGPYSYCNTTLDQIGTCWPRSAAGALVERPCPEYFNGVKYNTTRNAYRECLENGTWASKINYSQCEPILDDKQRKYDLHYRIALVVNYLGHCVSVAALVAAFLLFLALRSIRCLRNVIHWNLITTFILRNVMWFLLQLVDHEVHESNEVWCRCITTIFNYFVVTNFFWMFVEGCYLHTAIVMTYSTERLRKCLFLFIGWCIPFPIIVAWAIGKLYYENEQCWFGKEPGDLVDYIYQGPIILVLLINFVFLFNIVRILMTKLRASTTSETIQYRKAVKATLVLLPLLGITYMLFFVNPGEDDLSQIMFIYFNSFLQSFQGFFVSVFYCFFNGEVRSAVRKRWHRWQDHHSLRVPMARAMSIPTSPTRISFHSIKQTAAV
T4 sequence (P24387 whole entry): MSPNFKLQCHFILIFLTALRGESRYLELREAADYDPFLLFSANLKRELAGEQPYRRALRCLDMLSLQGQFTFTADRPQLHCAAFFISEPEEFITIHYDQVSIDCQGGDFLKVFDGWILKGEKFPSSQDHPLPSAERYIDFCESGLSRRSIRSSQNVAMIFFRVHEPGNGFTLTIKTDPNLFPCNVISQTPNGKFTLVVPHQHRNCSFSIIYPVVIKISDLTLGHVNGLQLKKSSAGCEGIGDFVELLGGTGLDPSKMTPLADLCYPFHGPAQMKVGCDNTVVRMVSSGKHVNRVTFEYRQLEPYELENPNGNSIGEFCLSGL

SUMO-activating enzyme = SUMO-activating enzyme (Homo sapiens, UniProt Q9UBT2); experiment: blockers of UBC9-mediated SUMO conjugation – biochemical, AlphaScreen, SUMOylation inhibitor project, confirmation (AID 2018); assay type: functional
[6] = target: T5, Runt-related transcription factor 1/Core-binding factor subunit beta (Homo sapiens, UniProt Q01196+Q13951); experiment: Runt domain/CBFb-SMMHC interaction disruptors – biochemical, TR-FRET (AID 1438); assay type: protein assay
[7] = target: T5, Runt-related transcription factor 1/Core-binding factor subunit beta; experiment: disruptors of Runt domain/CBFb-SMMHC interaction – biochemical, FRET, Cerulean-Runt, Venus-CBFb-SMMHC, uHTS, […] (AID 1434); assay type: protein assay
[8] = target: T3, Tyrosine-protein phosphatase non-receptor type 7; experiment: inhibition of hematopoietic tyrosine phosphatase HePTP – biochemical, set 2, SAR follow-up (AID 449736); assay type: functional
Cannabinoid receptor 2 [9] = target: T6, Cannabinoid receptor 2 (Homo sapiens, UniProt P34972); experiment: SAR analysis of agonists of the Cannabinoid Receptor 2 using an Image-Based Assay - Set 3. [Related pubchem assays (depositor defined):AID2013, AID2026]; assay type: functional
Cannabinoid receptor 1 [10] = target: T7, Cannabinoid receptor 1 (Homo sapiens, UniProt P21554); experiment: SAR analysis of antagonists of the Cannabinoid Receptor 1 using an Image-Based Assay - Set 4. [Related pubchem assays (depositor defined):AID2013, AID2026]; assay type: functional
Cannabinoid receptor 1 [11] = target: T7, Cannabinoid receptor 1; experiment: SAR analysis of agonists of the Cannabinoid Receptor 1 using an Image-Based Assay - Set 4. [Related pubchem assays (depositor defined):AID2013, AID2026]; assay type: functional
Cannabinoid receptor 2 [12] = target: T6, Cannabinoid receptor 2; experiment: SAR analysis of antagonists of the Cannabinoid Receptor 2 using an Image-Based Assay - Set 3. [Related pubchem assays (depositor defined):AID2013, AID2026]; assay type: functional
[13] = target: G-protein coupled receptor 55 (Homo sapiens, UniProt Q9Y2T6); experiment: SAR Analysis of Selective Antagonists of GPR55 using an Image-Based Assay - Set 4. [Related pubchem assays (depositor defined):AID2013, AID2026]; assay type: functional;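 note: antagonism of response to 5 µM lysophosphatidylinositol agonist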
[14] = target: T8, G-protein coupled receptor 35 (Homo sapiens, UniProt Q9HC97); experiment: SAR analysis of Agonists of the GPR35 Receptor using an Image-Based Assay - Set 4. [Related pubchem assays (depositor defined):AID2013, AID2026]; assay type: functional
[15] = target: T8, G-protein coupled receptor 35; experiment: SAR analysis of Antagonists of the GPR35 Receptor using an Image-Based Assay - Set 6. [Related pubchem assays (depositor defined):AID2013, AID2026]; assay type: functional

T5 sequence (Q01196 whole entry, the tested form may be a part): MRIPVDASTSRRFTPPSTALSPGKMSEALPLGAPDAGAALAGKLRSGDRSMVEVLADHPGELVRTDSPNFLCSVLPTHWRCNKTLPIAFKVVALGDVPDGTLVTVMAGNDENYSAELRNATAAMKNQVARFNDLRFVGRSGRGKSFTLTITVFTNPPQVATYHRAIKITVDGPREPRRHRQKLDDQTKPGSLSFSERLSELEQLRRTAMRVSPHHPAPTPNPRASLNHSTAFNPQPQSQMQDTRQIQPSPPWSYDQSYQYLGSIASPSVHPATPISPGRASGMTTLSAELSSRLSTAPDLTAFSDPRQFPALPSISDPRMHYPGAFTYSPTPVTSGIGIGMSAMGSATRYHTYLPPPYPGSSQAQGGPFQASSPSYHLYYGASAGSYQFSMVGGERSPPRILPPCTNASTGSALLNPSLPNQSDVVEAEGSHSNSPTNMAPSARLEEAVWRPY
T5 sequence (Q13951 whole entry, the tested form may be a part): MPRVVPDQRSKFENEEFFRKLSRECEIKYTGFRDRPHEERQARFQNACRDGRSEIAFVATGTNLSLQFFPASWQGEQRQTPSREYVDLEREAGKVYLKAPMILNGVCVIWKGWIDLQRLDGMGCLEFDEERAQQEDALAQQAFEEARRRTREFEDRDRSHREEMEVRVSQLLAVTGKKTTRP
T6 sequence (P34972 whole entry): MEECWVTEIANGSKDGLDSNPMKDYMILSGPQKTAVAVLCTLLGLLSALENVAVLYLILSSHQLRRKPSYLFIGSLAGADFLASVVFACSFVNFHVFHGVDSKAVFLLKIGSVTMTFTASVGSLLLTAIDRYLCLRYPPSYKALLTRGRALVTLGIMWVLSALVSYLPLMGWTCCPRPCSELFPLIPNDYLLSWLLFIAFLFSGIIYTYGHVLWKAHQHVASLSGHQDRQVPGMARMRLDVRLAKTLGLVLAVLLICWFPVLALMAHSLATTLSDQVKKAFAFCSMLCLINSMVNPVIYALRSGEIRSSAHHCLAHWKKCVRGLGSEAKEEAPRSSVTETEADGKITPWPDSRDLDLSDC
T7 sequence (P21554 whole entry): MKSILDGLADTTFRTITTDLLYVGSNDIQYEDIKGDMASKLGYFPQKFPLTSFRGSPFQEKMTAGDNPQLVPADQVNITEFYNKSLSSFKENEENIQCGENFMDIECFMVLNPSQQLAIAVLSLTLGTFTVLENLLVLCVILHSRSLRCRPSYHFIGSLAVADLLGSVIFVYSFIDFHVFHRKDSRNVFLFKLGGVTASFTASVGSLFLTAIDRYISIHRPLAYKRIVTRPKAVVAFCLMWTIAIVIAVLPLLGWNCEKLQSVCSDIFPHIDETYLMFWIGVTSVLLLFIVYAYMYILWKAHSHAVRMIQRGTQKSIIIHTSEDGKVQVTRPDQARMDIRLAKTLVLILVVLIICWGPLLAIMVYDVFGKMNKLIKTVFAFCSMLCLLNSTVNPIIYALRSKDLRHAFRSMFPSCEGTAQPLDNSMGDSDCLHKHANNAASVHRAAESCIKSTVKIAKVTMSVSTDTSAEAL
T8 sequence (Q9HC97 whole entry): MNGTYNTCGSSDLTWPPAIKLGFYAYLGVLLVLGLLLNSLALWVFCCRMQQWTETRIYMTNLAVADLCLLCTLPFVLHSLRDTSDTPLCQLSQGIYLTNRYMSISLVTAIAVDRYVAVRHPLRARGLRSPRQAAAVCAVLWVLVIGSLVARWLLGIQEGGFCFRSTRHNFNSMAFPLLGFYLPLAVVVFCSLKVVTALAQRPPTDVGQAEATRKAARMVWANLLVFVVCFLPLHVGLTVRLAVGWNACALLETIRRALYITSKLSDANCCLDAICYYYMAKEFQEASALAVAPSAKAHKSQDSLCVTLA
Chain of G-protein coupled receptor 55 (Q9Y2T6 whole entry): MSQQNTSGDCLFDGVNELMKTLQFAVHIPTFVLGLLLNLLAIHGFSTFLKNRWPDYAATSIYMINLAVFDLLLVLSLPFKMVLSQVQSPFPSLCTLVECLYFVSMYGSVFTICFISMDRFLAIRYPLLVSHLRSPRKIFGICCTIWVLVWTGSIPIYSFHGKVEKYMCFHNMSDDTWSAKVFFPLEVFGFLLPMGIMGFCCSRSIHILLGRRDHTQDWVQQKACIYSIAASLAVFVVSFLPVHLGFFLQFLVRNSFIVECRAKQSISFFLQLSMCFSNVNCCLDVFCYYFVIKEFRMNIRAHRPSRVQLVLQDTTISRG
Chain of SUMO-activating enzyme (Q9UBE0 whole entry, the tested form may be a part): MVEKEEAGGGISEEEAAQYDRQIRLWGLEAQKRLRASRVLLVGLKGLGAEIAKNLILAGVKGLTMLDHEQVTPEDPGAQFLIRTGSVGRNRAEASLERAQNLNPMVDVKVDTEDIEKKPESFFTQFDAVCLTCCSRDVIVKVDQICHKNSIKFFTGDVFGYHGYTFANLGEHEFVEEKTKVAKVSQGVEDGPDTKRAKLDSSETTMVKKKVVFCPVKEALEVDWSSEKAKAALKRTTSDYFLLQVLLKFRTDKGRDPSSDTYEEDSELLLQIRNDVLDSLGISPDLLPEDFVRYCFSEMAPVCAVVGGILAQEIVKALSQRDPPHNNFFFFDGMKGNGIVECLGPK
Chain of SUMO-activating enzyme (Q9UBT2 whole entry, the tested form may be a part): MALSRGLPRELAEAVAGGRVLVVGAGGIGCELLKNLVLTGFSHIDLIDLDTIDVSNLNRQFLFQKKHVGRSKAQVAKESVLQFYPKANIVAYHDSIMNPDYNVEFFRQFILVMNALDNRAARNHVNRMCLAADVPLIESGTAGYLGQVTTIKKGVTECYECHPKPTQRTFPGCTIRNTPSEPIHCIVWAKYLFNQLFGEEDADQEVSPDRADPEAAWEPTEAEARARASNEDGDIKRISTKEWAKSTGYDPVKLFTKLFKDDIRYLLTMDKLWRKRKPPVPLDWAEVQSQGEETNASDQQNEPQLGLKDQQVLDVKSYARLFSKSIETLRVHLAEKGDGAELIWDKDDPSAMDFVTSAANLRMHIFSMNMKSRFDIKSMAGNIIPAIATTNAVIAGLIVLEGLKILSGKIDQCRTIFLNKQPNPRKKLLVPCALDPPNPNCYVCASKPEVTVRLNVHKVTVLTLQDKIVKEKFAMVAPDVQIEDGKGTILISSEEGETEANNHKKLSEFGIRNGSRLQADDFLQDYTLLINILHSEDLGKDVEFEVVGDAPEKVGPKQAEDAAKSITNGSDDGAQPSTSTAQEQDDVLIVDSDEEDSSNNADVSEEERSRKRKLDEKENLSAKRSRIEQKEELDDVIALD

IC50 [2]: > 79.4 µM (inactive)
IC50 [3]: > 79.4 µM (inactive)
IC50 [4]: > 79.4 µM (inactive)
SMILES: CCc1nc2cc([N+](=O)[O-])c([N+](=O)[O-])cc2[nH]1

IC50 [8]: > 100 µM (inactive)
SMILES: Cc1cccc(NC(=S)Nc2ccc(S(N)(=O)=O)cc2)c1

Continued, molecule first:

SMILES: COc1ccc(-c2cc(C(=O)N3CCN(c4ccccc4)CC3)c3ccccc3n2)cc1
AC50 (CAAX prenyl protease 2): 4.71 µM (active)
AC50 [1]: 57.4 µM (active)

SMILES: O=C(Nc1nnc(-c2ccccc2)o1)c1nc2ccccc2s1
EC50 [5]: 7.07 µM (active)
IC50 (SUMO-activating enzyme): 16.3 µM (active)

SMILES: C=CCOc1c(Br)cc(C2C3=C(CCCC3=O)N(C)C3=C2C(=O)CCC3)cc1OCC
IC50 [6]: 41.2 µM (active)
IC50 [7]: 0.865 µM (active)

SMILES: Cc1nc(N2CCN(C(=O)C3CC3)CC2)c2c3c(sc2n1)CC(C)CC3 (configuration not stated)
EC50 (Cannabinoid receptor 2 [9]): > 32 µM (inactive)
IC50 (Cannabinoid receptor 1 [10]): 17.9 µM (inactive)
EC50 (Cannabinoid receptor 1 [11]): > 32 µM (inactive)
IC50 (Cannabinoid receptor 2 [12]): > 32 µM (inactive)
IC50 [13]: 10.6 µM (inactive)
EC50 [14]: > 32 µM (inactive)
IC50 [15]: > 32 µM (inactive)
